The structures appear in SMILES notation.

The test addresses T1, L-alanine dehydrogenase (A.D) (Bacillus subtilis, UniProt Q08352).
T1 sequence (Q08352 1-378): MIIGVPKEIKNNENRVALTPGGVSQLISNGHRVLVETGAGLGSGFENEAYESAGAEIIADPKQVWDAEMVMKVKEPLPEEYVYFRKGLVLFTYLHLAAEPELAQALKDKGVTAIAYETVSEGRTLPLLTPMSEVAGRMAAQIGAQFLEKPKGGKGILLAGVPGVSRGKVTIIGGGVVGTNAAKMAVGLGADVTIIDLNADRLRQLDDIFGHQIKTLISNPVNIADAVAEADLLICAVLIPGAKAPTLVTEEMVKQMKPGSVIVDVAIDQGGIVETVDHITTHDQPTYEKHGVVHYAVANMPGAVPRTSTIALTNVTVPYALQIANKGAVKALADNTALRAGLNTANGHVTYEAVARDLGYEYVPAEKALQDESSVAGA
Nature of the test: Relative activity of substrate with L-alanine dehydrogenase. In kind it is biochemical. As to conditions: relative to L-alanine (100%). The source says: If L-alanine dehydrogenase (A.D) is used as the enzyme in a reaction system similar to that used for leucine dehydrogenase, a suitable substrate and its activity relative to L-alanine (100%) is […]

Regarding `N[C@@H](CO)C(=O)O` [L-serine], the “Relative Activity” value turned out to be 5%.

(Values after patent US5804402A, “Reagent” (priority 1995, dated 1998).)
